System: SARS-CoV2
Test: SARS-CoV2 infection of human ACE2 mice, paquinimod nasal drop group versus control
Assay type: in vivo
Details: human ACE2 mice, paquinimod nasal drop group compared with control group, FIG. 17

With `CCc1cccc2c1c(O)c(C(=O)N(CC)c1ccccc1)c(=O)n2C` [paquinimod] the “resistance to SRAS-CoV2” value was “significantly more resistant”.

From patent US20220195432A9 (priority 2020, published 2022)
